Measurements as given in US11254668B2, “Pyrazolo[1,5-A]pyrazin-4-yl and related derivatives” (Pfizer Inc., priority 2017, dated 2022).
Read-outs that look alike come from different tables or passages of the source.

Legend:
Format in all cases: biochemical
[1] = target: TYK2 (Homo sapiens (Human), UniProt P29597); assay: JAK Caliper Enzyme Assay at 1 mM ATP, TYK2
Method in brief: (§1)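 Peptide phosphorylation by recombinant human kinase domain, 1 mM ATP, room temperature, EDTA-terminated, detected by microfluidic mobility shift; % effect normalised to DMSO baseline.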

[2] = target: JAK1 (Homo sapiens (Human), UniProt P23458); assay: JAK Caliper Enzyme Assay at 1 mM ATP, JAK1
Chain of JAK1 (P23458 875-1153): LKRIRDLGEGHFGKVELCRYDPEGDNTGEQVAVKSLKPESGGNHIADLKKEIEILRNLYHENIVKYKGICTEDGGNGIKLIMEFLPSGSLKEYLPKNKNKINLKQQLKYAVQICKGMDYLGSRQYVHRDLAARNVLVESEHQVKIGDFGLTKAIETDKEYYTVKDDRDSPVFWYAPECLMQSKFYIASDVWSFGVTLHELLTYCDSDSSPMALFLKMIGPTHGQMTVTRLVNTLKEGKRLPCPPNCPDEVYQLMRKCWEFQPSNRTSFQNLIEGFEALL
Method in brief: (§2)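 Recombinant human kinase domains phosphorylated a fluorescent synthetic peptide at room temperature, with enzyme level and time tuned to 20% to 30% conversion; EDTA stop buffer ended reactions. Mobility-shift separation gave percent product from peak heights, normalised to DMSO and positive controls, and IC50s came from concentration–effect curves.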

[3] = target: JAK2 (Homo sapiens (Human), UniProt O60674); assay: JAK Caliper Enzyme Assay at 1 mM ATP, JAK2
Chain of JAK2 (O60674 849-1124): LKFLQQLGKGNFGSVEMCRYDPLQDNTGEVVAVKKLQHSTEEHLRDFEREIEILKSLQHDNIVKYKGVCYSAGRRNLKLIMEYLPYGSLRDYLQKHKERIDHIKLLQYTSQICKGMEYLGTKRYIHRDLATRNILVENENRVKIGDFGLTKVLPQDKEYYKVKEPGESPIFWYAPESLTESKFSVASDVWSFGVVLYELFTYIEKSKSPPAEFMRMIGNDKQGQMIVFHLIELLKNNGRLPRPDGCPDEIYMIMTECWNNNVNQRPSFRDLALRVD
Method in brief: as §1

[4] = target: JAK3 (Homo sapiens (Human), UniProt P52333); assay: JAK Caliper Enzyme Assay at 1 mM ATP, JAK3
Chain of JAK3 (P52333 822-1111): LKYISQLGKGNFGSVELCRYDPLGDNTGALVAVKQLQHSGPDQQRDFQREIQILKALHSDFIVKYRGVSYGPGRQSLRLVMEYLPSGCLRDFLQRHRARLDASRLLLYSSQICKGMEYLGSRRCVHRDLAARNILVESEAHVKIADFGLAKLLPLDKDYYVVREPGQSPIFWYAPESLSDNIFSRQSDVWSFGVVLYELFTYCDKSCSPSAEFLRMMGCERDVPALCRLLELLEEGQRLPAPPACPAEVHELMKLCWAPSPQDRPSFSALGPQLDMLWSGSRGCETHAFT
Method in brief: as §2

Chain of TYK2 (P29597 897-1176): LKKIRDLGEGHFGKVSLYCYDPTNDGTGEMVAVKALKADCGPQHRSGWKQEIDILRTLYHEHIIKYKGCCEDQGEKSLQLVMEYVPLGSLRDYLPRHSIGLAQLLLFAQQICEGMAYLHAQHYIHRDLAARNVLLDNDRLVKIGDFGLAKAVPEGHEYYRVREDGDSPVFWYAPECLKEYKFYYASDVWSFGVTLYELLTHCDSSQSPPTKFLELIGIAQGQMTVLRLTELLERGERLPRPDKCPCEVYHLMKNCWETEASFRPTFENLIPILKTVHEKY

| Compound | IC50 [1] | IC50 [2] | IC50 [3] | IC50 [4] | IC50 ([1]; JAK Caliper enzyme assay) | IC50 ([2]; JAK Caliper enzyme assay) | IC50 ([3]; JAK Caliper enzyme assay) | IC50 ([4]; JAK Caliper enzyme assay) |
| --- | --- | --- | --- | --- | --- | --- | --- | --- |
| Cn1nc(CO)cc1-c1cc2ncccc2c(-c2ccn([C@]3(CC#N)C[C@@H](C#N)C3)n2)n1 [Example 60, trans-3-(cyanomethyl)-3-(3-{7-[3-(hydroxymethyl)-1-methyl-1H-pyrazol-5-yl]-1,6-naphthyridin-5-yl}-1H-pyrazol-1-yl)cyclobutanecarbonitrile] | 190 nM | 3850 nM | 915 nM | > 10000 nM | – | – | – | – |
| COc1nc(-c2cc(-c3cnn([C@]4(CC#N)C[C@@H](C#N)C4)n3)c3cccnc3c2)cnc1N [Example 408, trans-3-{4-[7-(5-amino-6-methontpyrazin-2-yl)quinolin-5-yl]-2H-1,2,3-triazol-2-yl}-3-(cyanomethyl)cyclobutanecarbonitrile] | – | – | – | – | 2090 nM | > 10000 nM | > 10000 nM | > 10000 nM |
| 2-[3-{4-[7-(1-methyl-1H-pyrazol-4-yl)-1,6-naphthyridin-5-yl]-1H-pyrazol-1-yl}-1-(2,2,2-trifluoroethyl)azetidin-3- [Example 5] | 1110 nM | 2820 nM | 2950 nM | > 10000 nM | – | – | – | – |
| N#CCC1(n2ccc(-c3nc(-c4ccncc4F)cc4ncccc34)n2)CN(CC(F)(F)F)C1 [Example 179, [3-{3-[7-(3-fluoropyridin-4-yl)-1,6-naphthyridin-5-yl]-1H-pyrazol-1-yl}-1-(2,2,2-trifluoroethyl)azetidin-3-yl]acetonitrile] | 285 nM | > 10000 nM | 9670 nM | > 10000 nM | – | – | – | – |
| Cc1ccc(-c2cc(-c3cnn(C4(CC#N)CN(S(C)(=O)=O)C4)n3)c3cccnc3c2)cn1 [Example 355, [3-{4-[7-(6-methylpyridin-3-yl)quinolin-5-yl]-2H-1,2,3-triazol-2-yl}-1-(methylsulfonyl)azetidin-3-yl]acetonitrile] | 137 nM | > 10000 nM | 1580 nM | > 10000 nM | – | – | – | – |
| N#CCC1(n2ccc(-c3nc(-c4ccn[nH]4)cc4ncccc34)n2)CC(CO)C1 (stereo not drawn) [Example 29, [cis-3-(hydroxymethyl)-1-{3-[7-(1H-pyrazol-5-yl)-1,6-naphthyridin-5-yl]-1H-pyrazol-1-yl}cyclobutyl]acetonitrile] | 437 nM | 3800 nM | 2340 nM | > 10000 nM | – | – | – | – |
| Cc1ncc(-c2cc(-c3cnn([C@]4(CC#N)C[C@H](C#N)C4)c3)n3ccnc3c2)[nH]1 [Example 465, cis-3-(cyanomethyl)-3-{4-[7-(2-methyl-1H-imidazol-5-yl)imidazo[1,2-a]pyridin-5-yl]-1H-pyrazol-1-yl}cyclobutanecarbonitrile] | – | – | – | – | 54 nM | 6000 nM | 859 nM | > 10000 nM |
| CC(=O)Nc1cccc(-c2cc(-c3cnn(C4(CC#N)CC(C#N)C4)n3)c3cccnc3c2)n1 (stereo not drawn) [Example 377, N-[6-(5-{2-[cis-3-cyano-1-(cyanomethyl)cyclobutyl]-2H-1,2,3-triazol-4-yl}quinolin-7-yl)pyridin-2-yl]acetamide] | – | – | – | – | 14 nM | 73 nM | 33 nM | 1350 nM |
| Cc1cn([C@]2(CC#N)C[C@@H](C#N)C2)nc1-c1nc(-c2cn[nH]c2N)cc2ncccc12 [Example 276, trans-3-{3-[7-(5-amino-1H-pyrazol-4-yl)-1,6-naphthyridin-5-yl]-4-methyl-1H-pyrazol-1-yl}-3-(cyanomethyl)cyclobutanecarbonitrile] | 144 nM | 3480 nM | 947 nM | > 10000 nM | – | – | – | – |
| CS(=O)(=O)N1CC(CC#N)(n2ccc(-c3cc(-c4cn[nH]c4)cc4ncccc34)n2)C1 [Example 284, [1-(methylsulfonyl)-3-{3-[7-(1H-pyrazol-4-yl)quinolin-5-yl]-1H-pyrazol-1-yl}azetidin-3-yl]acetonitrile] | 171 nM | 6830 nM | 2500 nM | > 10000 nM | – | – | – | – |
| CO[C@H]1C[C@](CC#N)(n2ccc(-c3nc(-c4cc(CO)n[nH]4)cc4ncccc34)n2)C1 [Example 50, [trans-1-(3-{7-[3-(hydroxymethyl)-1H-pyrazol-5-yl]-1,6-naphthyridin-5-yl}-1H-pyrazol-1-yl)-3-methoxycyclobutyl]acetonitrile] | 59 nM | 2750 nM | 861 nM | > 10000 nM | – | – | – | – |
| N#CC[C@]1(n2ccc(-c3nc(-c4cc(N)cnn4)cc4ncccc34)n2)C[C@H](C#N)C1 [Example 241, trans-3-{3-[7-(5-aminopyridazin-3-yl)-1,6-naphthyridin-5-yl]-1H-pyrazol-1-yl}-3-(cyanomethyl)cyclobutanecarbonitrile] | 3390 nM | > 10000 nM | > 10000 nM | > 10000 nM | – | – | – | – |
| N#CC[C@]1(n2ncc(-c3cc(-c4ccc(C(N)=O)cc4)cc4ncccc34)n2)C[C@H](C#N)C1 [Example 433, 4-(5-{2-[cis-3-cyano-1-(cyanomethyl)cyclobutyl]-2H-1,2,3-triazol-4-yl}quinolin-7-yl)benzamide] | – | – | – | – | 20 nM | 352 nM | 116 nM | 6700 nM |

Further lines, results first:

| IC50 [1] | IC50 [2] | IC50 [3] | IC50 [4] | IC50 ([1]; JAK Caliper enzyme assay) | IC50 ([2]; JAK Caliper enzyme assay) | IC50 ([3]; JAK Caliper enzyme assay) | IC50 ([4]; JAK Caliper enzyme assay) | Compound |
| --- | --- | --- | --- | --- | --- | --- | --- | --- |
| 21 nM | 70 nM | 14 nM | 2620 nM | – | – | – | – | N#CCC1(n2cc(-c3nc(-c4cnn(C5CCOCC5)c4)cc4ncccc34)cn2)CN(CC(F)(F)F)C1 [Example 11, [3-(4-{7-[1-(tetrahydro-2H-pyran-4-yl)-1H-pyrazol-4-yl]-1,6-naphthyridin-5-yl}-1H-pyrazol-1-yl)-1-(2,2,2-trifluoroethyl)azetidin-3-yl]acetonitrile] |
| 16 nM | 429 nM | 46 nM | 7070 nM | – | – | – | – | Cc1cc(-c2nc(-c3cc(N)n(C)n3)cc3ncccc23)nn1[C@]1(CC#N)C[C@H](C#N)C1 [Example 271, cis-3-{3-[7-(5-amino-1-methyl-1H-pyrazol-3-yl)-1,6-naphthyridin-5-yl]-5-methyl-1H-pyrazol-1-yl}-3-(cyanomethyl)cyclobutanecarbonitrile] |
| 35 nM | 2560 nM | 1050 nM | > 10000 nM | – | – | – | – | CO[C@H]1C[C@](CC#N)(n2ncc(-c3cc(-c4cc[nH]n4)cc4ncccc34)n2)C1 [Example 305, (trans-3-methoxy-1-{4-[7-(1H-pyrazol-3-yl)quinolin-5-yl]-2H-1,2,3-triazol-2-yl}cyclobutyl)acetonitrile] |
| 47 nM | 1060 nM | 927 nM | > 10000 nM | – | – | – | – | CO[C@H]1C[C@@](CC#N)(n2ccc(-c3nc(-c4cn[nH]c4)cc4ncccc34)n2)C1 [Example 80, (cis-3-methoxy-1-{3-[7-(1H-pyrazol-4-yl)-1,6-naphthyridin-5-yl]-1H-pyrazol-1-yl}cyclobutyl)acetonitrile] |
| 15 nM | 663 nM | 118 nM | > 10000 nM | – | – | – | – | CS(=O)(=O)N1CC(CC#N)(n2ccc(-c3nc(-c4ccccc4O)cc4ncccc34)n2)C1 [Example 252, [3-{3-[7-(2-hydroxyphenyl)-1,6-naphthyridin-5-yl]-1H-pyrazol-1-yl}-1-(methylsulfonyl)azetidin-3-yl]acetonitrile] |
| 16 nM | 311 nM | 50 nM | 1590 nM | – | – | – | – | Cn1cc(-c2cc3ncccc3c(-c3ccn(C4(CC#N)CN(S(N)(=O)=O)C4)n3)n2)cn1 [Example 108, 3-(cyanomethyl)-3-{3-[7-(1-methyl-1H-pyrazol-4-yl)-1,6-naphthyridin-5-yl]-1H-pyrazol-1-yl}azetidine-1-sulfonamide] |
| 19 nM | 87 nM | 46 nM | 4330 nM | – | – | – | – | N#CC[C@]1(n2ccc(-c3nc(-c4ccnc(CO)c4)cc4ncccc34)n2)C[C@@H](C#N)C1 [Example 213, cis-3-(cyanomethyl)-3-(3-{7-[2-(hydroxymethyl)pyridin-4-yl]-1,6-naphthyridin-5-yl}-1H-pyrazol-1-yl)cyclobutanecarbonitrile] |
| 28 nM | 676 nM | 48 nM | 5100 nM | – | – | – | – | N#CCC1(n2ccc(-c3nc(-c4cc5n(n4)CCNC5)cc4ncccc34)n2)CC(C#N)C1 (stereo not drawn) [Example 72, cis-3-(cyanomethyl)-3-{3-[7-(4,5,6,7-tetrahydropyrazolo[1,5-a]pyrazin-2-yl)-1,6-naphthyridin-5-yl]-1H-pyrazol-1-yl}cyclobutanecarbonitrile] |
| 18 nM | 719 nM | 131 nM | > 10000 nM | – | – | – | – | N#CC[C@]1(n2ncc(-c3cc(-c4cc(CO)[nH]n4)cc4ncccc34)n2)C[C@H](C#N)C1 [Example 308, trans-3-(cyanomethyl)-3-(4-{7-[5-(hydroxymethyl)-1H-pyrazol-3-yl]quinolin-5-yl}-2H-1,2,3-triazol-2-yl)cyclobutanecarbonitrile] |
| 22 nM | 1010 nM | 354 nM | > 10000 nM | – | – | – | – | CO[C@H]1C[C@](CC#N)(n2ccc(-c3nc(-c4c[nH]nc4N)cc4ncccc34)n2)C1 [Example 95, (trans-1-{3-[7-(3-amino-1H-pyrazol-4-yl)-1,6-naphthyridin-5-yl]-1H-pyrazol-1-yl}-3-methoxycyclobutyl)acetonitrile] |
| 33 nM | 2910 nM | 243 nM | > 10000 nM | – | – | – | – | Cc1nc(-c2cc(-c3cnn([C@]4(CC#N)C[C@@H](C#N)C4)n3)c3cccnc3c2)c[nH]1 [Example 337, trans-3-(cyanomethyl)-3-{4-[7-(2-methyl-1H-imidazol-4-yl)quinolin-5-yl]-2H-1,2,3-triazol-2-yl}cyclobutanecarbonitrile] |
